The source of these data is article PMC12974487, “Inhibition of FicD-mediated AMPylation and deAMPylation by isoprenoid diphosphates” (Proceedings of the National Academy of Sciences of the …, 2026).

Assay [1] deals with T1, FicD^L258D (Homo sapiens, UniProt Q9BVA6, L258D).
T1 construct: soluble ER luminal domain (residues 105 to 458) of wild-type human FicD and three mutants; 6xHis-Sumo (N, cleaved yes); made in house; host or cells: Rosetta(DE3) E. coli
T1 sequence (Q9BVA6 105-458 L258D): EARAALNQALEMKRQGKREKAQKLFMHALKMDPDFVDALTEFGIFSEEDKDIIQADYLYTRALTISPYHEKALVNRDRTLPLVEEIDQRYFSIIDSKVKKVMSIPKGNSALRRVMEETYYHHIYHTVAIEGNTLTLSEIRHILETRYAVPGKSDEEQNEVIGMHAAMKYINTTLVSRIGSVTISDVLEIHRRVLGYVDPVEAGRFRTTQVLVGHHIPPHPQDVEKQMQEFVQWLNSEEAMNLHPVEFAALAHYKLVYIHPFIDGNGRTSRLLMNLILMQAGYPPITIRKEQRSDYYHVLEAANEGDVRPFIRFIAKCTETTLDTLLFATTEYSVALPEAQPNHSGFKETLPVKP
The assay is described as follows: MIDAS metabolite screen, FicD^L258D. The assay is classed as binding. The conditions noted are these: cutoff Q < 0.05 and |Log2 corrected fold change| > 2, metabolites 5 µM. The text has this: (§1) To identify small-molecule metabolite interactions with FicD, we applied an unbiased high-throughput screening approach known as MIDAS ([44]). Given the high concentrations of protein required for MIDAS screening, we purified the soluble ER luminal domain (residues 105 to 458) of wild-type human FicD and three mutants FicD^E234G, FicD^L258D, and FicD^H363A for screening (Fig. 1A). These mutants were selected based on their well-established biochemical features ([23], [24], [31]). All three are predicted to enhance detection of protein–metabolite interactions (PMIs) relative to FicD^WT through increased affinity for nucleotide substrates (FicD^E234G), improved solubility (FicD^L258D), and loss of catalytic turnover (FicD^H363A) (Fig. 1A). To decrease the potential for nonspecific small-molecule binding, we ensured the purity of our FicD proteins (SI Appendix, Fig. S1 A and B). As reported by other investigators ([24], [31]), we observe an increase in elution volume of the FicD^L258D mutant, consistent with its monomerization (SI Appendix, Fig. S1C).
(§2) Out of the 602 naturally occurring human metabolites in the MIDAS library, we applied a significance cutoff (q value < 0.05) to identify 12 PMIs with a Log2 (corrected fold change) of >2 and two PMIs with a Log2 (corrected fold change) <-2 in the FicD^WT screen (Fig. 1B and SI Appendix, Table S2). Hits were additionally triaged based on detection of multiple adducts of the metabolite in a single dataset (FPP and […] in Fig. 1B) and identification of the same metabolites across three or more of the FicD construct screens (Fig. 1C). Three chemical classes passed this initial triage: adenosine nucleotides, isoprenoid diphosphates, and thyroid hormone intermediates (Fig. 1 B and C and SI Appendix, Tables S2–S5).
(§3) 22°C. Induced cultures were then harvested by centrifugation at 8000G for 15 minutes at 4°C and […]
(§4) Bacterial pellets were resuspended in 30-50mL of 50mM Tris pH 7.4/150mM NaCl/10% glycerol with one Roche cOmplete EDTA-Free Protease inhibitor cocktail tablet (cat no. COEDTAF-RO).
(§5) Triton-X100 to a final concentration of 0.2%, Chicken-egg lysozyme to a final concentration of 0.4ug/mL, and 2-5uL of Millipore Benzonase Nuclease (cat no. 70664) were added to bacterial suspension prior to sonication at 40-50% amplitude for 1-3 minutes in pulses of 5 seconds on and 30 seconds off on ice with a Sonics VCX 750 Ultrasonicator. Bacterial lysate was then clarified by centrifugation at 30,000 x g for 30 minutes at 4°C.
Clarified lysate was rotated with Qiagen NiNTA agarose beads (cat no. 30210) for 1-2 hours at 4°C. The beads were then transferred to a 15mL conical vial, resuspended in 10-15mL wash buffer (50mM Tris pH 7.4/150mM NaCl/10% glycerol/0.2% Triton-X 100/10mM imidazole), and spun down at 1000G for 1 minute at 4°C, after which the supernatant was aspirated from the beads. This washing step was repeated 2-4 times to rinse bacterial lysate from the beads prior to on-column washing. The beads were then transferred to BioRad Econopac 20mL bed volume column (cat no.
7321010) and washed with 10-15mL of wash buffer (repeated at least three times), 10mL of ATP wash (50mM Tris pH 7.4/300mM KCl/10mM MgCl2/500uM ATP, repeated once), and finally with 10-15mL wash buffer without Triton-X 100 (repeated at least three times). Protein was eluted in 500μL-1mL elution buffer (50mM Tris pH 7.5/150mM NaCl/10% glycerol/0.5% CHAPS). […]

Assay [2] concerns the target T2, FicD^E234G (Homo sapiens, UniProt Q9BVA6, E234G).
T2 construct: soluble ER luminal domain (residues 105 to 458) of wild-type human FicD and three mutants; 6xHis-Sumo (N, cleaved yes); made in house; host or cells: Rosetta(DE3) E. coli
T2 sequence (Q9BVA6 105-458 E234G): T1 sequence (Q9BVA6 105-458 L258D) with E130G, D154L
As to the kind of experiment: MIDAS metabolite screen, FicD^E234G. The assay is classed as binding. The conditions noted are these: cutoff Q < 0.05 and |Log2 corrected fold change| > 2, metabolites 5 µM.

Assay [3] has as its target T3, FicD^H363A (Homo sapiens, UniProt Q9BVA6, H363A).
T3 construct: soluble ER luminal domain (residues 105 to 458) of wild-type human FicD and three mutants; 6xHis-Sumo (N, cleaved yes); made in house; host or cells: Rosetta(DE3) E. coli
T3 sequence (Q9BVA6 105-458 H363A): T1 sequence (Q9BVA6 105-458 L258D) with D154L, H259A
The assay is described as follows: MIDAS metabolite screen, FicD^H363A. The conditions noted are these: cutoff Q < 0.05 and |Log2 corrected fold change| > 2, metabolites 5 µM. The assay is classed as binding.
Text: as §1, §2, §3, §4, §5
Clarified lysate was rotated with Qiagen NiNTA agarose beads (cat no. 30210) for 1-2 hours at 4°C. […]

In assay [4] the target is T4, FicD^WT (Homo sapiens, UniProt Q9BVA6).
T4 construct: soluble ER luminal domain (residues 105 to 458) of wild-type human FicD; 6xHis-Sumo (N, cleaved yes); made in house; host or cells: Rosetta(DE3) E. coli
T4 sequence (Q9BVA6 105-458): T1 sequence (Q9BVA6 105-458 L258D) with D154L
The assay is described as follows: MIDAS equilibrium dialysis/mass spectrometry metabolite screen, FicD^WT. Type of assay: binding. The conditions noted are these: cutoff Q < 0.05 and |Log2 corrected fold change| > 2, metabolites 5 µM.

In assay [5] the test system is FicD. More on the design: method as in PMID 40036289. The conditions noted are these: cited from earlier work.

SMILES strings stand for the structures. Substitutions are numbered along the chain they refer to.

`N[C@@H](Cc1ccc(Oc2ccc(O)c(I)c2)c(I)c1)C(=O)O` [3,3’-Diiodothyronine]: the “MIDAS protein-metabolite interaction (enrichment/depletion)” value in assay [1], in assay [2], in assay [3] and in assay [4] was “significantly enriched” in each case.

With `N[C@@H](Cc1cc(I)c(Oc2ccc(O)c(I)c2)c(I)c1)C(=O)O` [liothyronine], in assay [5], the “FicD inhibition reported in previous drug screens” value is given as “small-molecule inhibitor of FicD”.
